Assay results as given in US20030071268A1, “Optical data storage medium containing a diaza hemicyanine dye as the light-absorbing compound in the information layer” (priority 2001, published 2003).

Key:
Format in all cases: physicochemical
[1] = absorption spectra measured in solution
Procedure: (§1) For a recordable optical data storage medium according to the invention which is recorded on and read using light from a blue laser, such diaza hemicyanine dyes are preferred whose absorption maximum λmax2 is in the range from 420 to 550 nm, wherein the wavelength λ½ at which the extinction on the short-wavelength slope of the absorption maximum of the wavelength λmax2 is half the extinction value at λmax2, and the wavelength λ 1/10, at which the extinction on the short-wavelength slope of the absorption maximum of the wavelength λmax2 is a tenth of the extinction value at λmax2, are preferably in each case no further than 50 nm away from each other.
as §1, with “a red” for “a blue”, “from 500” for “from 420”, “to 650” for “to 550”, “the long-wavelength” for “the short-wavelength”, “50 mn” for “50 nm”, “other. […]” for “other.”
The absorption spectra are, for example, measured in solution.

film appearance = assay: film appearance
Excerpt: In addition to the above-mentioned optical properties, the recordable information layer consisting of light-absorbing organic substances must have a morphology which is as amorphous as possible, in order to keep the noise signal during recording or reading as small as possible. For this purpose it is particularly preferable, when applying the substances by spin-coating from a solution or by vapour deposition and/or sublimation, to prevent crystallization of the light-absorbing substances during the subsequent top-coating with metallic or dielectric layers in vacuo.

[2] = solubility in TFP (2,2,3,3-tetrafluoropropanol)

- ε ([1]; Example 1): 30100 mol⁻¹ cm⁻¹
- λmax ([1]; in methanol): 592 nm
- film appearance (film appearance): a glassy film
- Solubility [2]: > 2%
SMILES: CC(C)N(c1n[n+](C)c(/N=N/c2sc(N3CCOCC3)nc2-c2ccccc2)s1)C(C)C [Example 1]
